From US6936591B2, “Amorphous 9-deoxo-9a-aza-9a-methyl-9a-homoerythromycin A, process for preparing the same, and uses thereof” (Pliva Pharmaceutical Industry, Incorporated, priority 2002, dated 2005)

How the values were obtained:
Format in all cases: physicochemical
[1] = Dissolution profiles, USP Method 2, dissolved content by HPLC
Protocol: For comparison, new pseudopolymorph Ic as prepared by the procedure in Example 3 above and new amorphous 9-deoxo-9a-aza-9a-methyl-9a-homoerythromycin A as prepared by the procedure in Example 11 above were used. The comparative dissolution profiles were determined by USP Method 2, PharmaTest Dissolution Tester, PTW SII; and the content of dissolved 9-deoxo-9a-aza-9a-methyl-9a-homoerythromycin A was measured by HPLC. The data thus obtained are set forth in Table 2 below, and plotted in FIGS. 8 (pH 3) and 9 (pH 6).

[2] = Intrinsic dissolution rate (IDR), Intrinsic Dissolution Tester, Van Kel Type; settings: medium of pH 6 and 37° C.
Protocol: The intrinsic dissolution rates (IDR) for the new amorphous 9-deoxo-9a-aza-9a-methyl-9a-homoerythromycin A prepared according to the procedure of Example 11, and the commercial 9-deoxo-9a-aza-9a-methyl-9a-homoerythromycin A dihydrate, in medium of pH 6 and 37° C., were determined by Intrinsic Dissolution Tester, Van Kel Type. The IDR for the new amorphous 9-deoxo-9a-aza-9a-methyl-9a-homoerythromycin A was about […], about […] higher than the IDR of the prior art, i.e. 9-deoxo-9a-aza-9a-methyl-9a-homoerythromycin A dihydrate (about 1.8 mg min^−1cm^−2).

[3] = Hygroscopicity and stability at normal storage conditions

Q: For CC[C@H]1OC(=O)[C@H](C)[C@@H](O[C@H]2C[C@@](C)(OC)[C@@H](O)[C@H](C)O2)C(C)[C@@H](O[C@@H]2O[C@H](C)C[C@H](N(C)C)[C@H]2O)[C@](C)(O)C[C@@H](C)CN(C)[C@H](C)[C@@H](O)[C@]1(C)O (stereo partly drawn) [Example 11, 9-deoxo-9a-aza-9a-methyl-9a-homoerythromycin A], which “Specific dissolution rate as compared with the dihydrate” value ([1]; compared with the dihydrate) is on record?
A: Its value is “significantly better”.

Q: What about the Percent dissolved ([1]; pH 3, 37° C., 5 minutes) of the same compound?
A: The Percent dissolved was 14.3%.

Q: What about the Percent dissolved ([1]; pH 3, 37° C., 10 minutes) of the same compound?
A: The Percent dissolved was 26.5%.

Q: And the Percent dissolved ([1]; pH 3, 37° C., 20 minutes)?
A: The Percent dissolved was 50.5%.

Q: What about the Percent dissolved ([1]; pH 3, 37° C., 45 minutes) of the same compound?
A: Its Percent dissolved is 85.8%.

Q: And the Percent dissolved ([1]; pH 3, 37° C., 60 minutes)?
A: Its Percent dissolved is 89.5%.

Q: What about the Percent dissolved ([1]; pH 6, 37° C., 5 minutes) of the same compound?
A: Its Percent dissolved is 78.5%.

Q: What about the Percent dissolved ([1]; pH 6, 37° C., 10 minutes) of the same compound?
A: The Percent dissolved was 97.5%.

Q: What about the Percent dissolved ([1]; pH 6, 37° C., 20 minutes) of the same compound?
A: Its Percent dissolved is 98.7%.

Q: And the Percent dissolved ([1]; pH 6, 37° C., 45 minutes)?
A: The Percent dissolved was 96.7%.

Q: And the Percent dissolved ([1]; pH 6, 37° C., 60 minutes)?
A: The Percent dissolved was 95.1%.

Q: And the “Intrinsic dissolution rate (IDR)” value [2]?
A: Its value is “about 2.79 mg min^−1 cm^−2”.

Q: And the “IDR higher than the IDR of the dihydrate” value ([2]; relative to commercial dihydrate)?
A: The value was “about 40%”.

Q: And the Hygroscopicity [3]?
A: The Hygroscopicity was “not hygroscopic”.

Q: And the “Stability (chemical stability and stability of the "crystal" form)” value ([3]; normal storage conditions)?
A: The value was “stable”.

Q: What does the source list for CC[C@H]1OC(=O)[C@H](C)[C@@H](O[C@H]2C[C@@](C)(OC)[C@@H](O)[C@H](C)O2)C(C)[C@@H](O[C@@H]2O[C@H](C)C[C@H](N(C)C)[C@H]2O)[C@](C)(O)C[C@@H](C)CN(C)[C@H](C)[C@@H](O)[C@]1(C)O (stereo partly drawn) [9-deoxo-9a-aza-9a-methyl-9a-homoerythromycin A dihydrate, reference compound]?
A: Percent dissolved ([1]; pH 3, 37° C., 5 minutes, dihydrate): 3.9%; Percent dissolved ([1]; pH 3, 37° C., 10 minutes, dihydrate): 8.1%; Percent dissolved ([1]; pH 3, 37° C., 20 minutes, dihydrate): 14.6%; Percent dissolved ([1]; pH 3, 37° C., 45 minutes, dihydrate): 26.7%; Percent dissolved ([1]; pH 3, 37° C., 60 minutes, dihydrate): 33.3%; Percent dissolved ([1]; pH 6, 37° C., 5 minutes, dihydrate): 14.5%; Percent dissolved ([1]; pH 6, 37° C., 10 minutes, dihydrate): 27.3%; Percent dissolved ([1]; pH 6, 37° C., 20 minutes, dihydrate): 44.2%; Percent dissolved ([1]; pH 6, 37° C., 45 minutes, dihydrate): 69.1%; Percent dissolved ([1]; pH 6, 37° C., 60 minutes, dihydrate): 73.7%; Intrinsic dissolution rate (IDR) ([2]; dihydrate): about 1.8 mg min^−1 cm^−2

Q: Which Percent dissolved ([1]; pH 3, 37° C., 5 minutes) does the source give for CC[C@H]1OC(=O)[C@H](C)[C@@H](O[C@H]2C[C@@](C)(OC)[C@@H](O)[C@H](C)O2)[C@H](C)[C@@H](O[C@@H]2O[C@H](C)C[C@H](N(C)C)[C@H]2O)[C@](C)(O)C[C@@H](C)CN(C)[C@H](C)[C@@H](O)[C@]1(C)O [Ic, 9-deoxo-9a-aza-9a-methyl-9a-homoerythromycin A] here?
A: Its Percent dissolved is 12.3%.

Q: And the Percent dissolved ([1]; pH 3, 37° C., 10 minutes)?
A: Its Percent dissolved is 29.4%.

Q: And the Percent dissolved ([1]; pH 3, 37° C., 20 minutes)?
A: Its Percent dissolved is 52.5%.

Q: And the Percent dissolved ([1]; pH 3, 37° C., 45 minutes)?
A: Its Percent dissolved is 92.2%.

Q: What about the Percent dissolved ([1]; pH 3, 37° C., 60 minutes) of the same compound?
A: Its Percent dissolved is 93.2%.

Q: What about the Percent dissolved ([1]; pH 6, 37° C., 5 minutes) of the same compound?
A: Its Percent dissolved is 74.0%.

Q: And the Percent dissolved ([1]; pH 6, 37° C., 10 minutes)?
A: The Percent dissolved was 98.8%.

Q: What about the Percent dissolved ([1]; pH 6, 37° C., 20 minutes) of the same compound?
A: The Percent dissolved was 98.6%.

Q: And the Percent dissolved ([1]; pH 6, 37° C., 45 minutes)?
A: Its Percent dissolved is 95.3%.

Q: And the Percent dissolved ([1]; pH 6, 37° C., 60 minutes)?
A: Its Percent dissolved is 94.6%.
